Test results from patent publication US12251458B1, “Anti-aging preparation for skin and application thereof” (South China Normal University, priority 2023, dated 2025).

Legend:
COL1A2 [1] = assay: COL1A2 expression in mouse skin fibroblasts by fluorescent quantitative PCR; format: cell-based, C57BL/6 mice; conditions: for expression of COL1A2 in the fibroblasts relative to blank control group: mouse skin fibroblasts
Excerpt: (§1) Experimental method: skin tissues were taken from the backs of newborn C57BL/6 mice, and fibroblasts obtained from mice were isolated and purified. […] The third-generation of fibroblasts were taken for experiments.
Experimental method: the COL1A2 level was detected using fluorescent quantitative polymerase chain reaction (PCR) method. The experiment was divided into two major groups: a blank control group and a sodium 4-[(1E)-2-[[(4-chlorophenyl)methyl]sulfonyl]alkyne]-benzoate treatment group. In the blank control group, the fibroblasts were cultured in a normal medium; and in the sodium 4-[(1E)-2-[[(4-chlorophenyl)methyl]sulfonyl]alkyne]-benzoate treatment group, the fibroblasts were treated with five media containing different concentrations (0.1 μM, […], 1 μM, 3 μM, and 6 μM) of sodium 4-[(1E)-2-[[(4-chlorophenyl)methyl]sulfonyl]alkyne]-benzoate (i.e., normal medium added with sodium 4-[(1E)-2-[[(4-chlorophenyl)methyl]sulfonyl]alkyne]-benzoate at the aforementioned concentrations) for 24 h. The specific process was as follows. The third-generation of fibroblasts was uniformly inoculated into a six-well plate. In the blank control group, the fibroblasts were cultured in the normal medium, and in the sodium 4-[(1E)-2-[[(4-chlorophenyl)methyl]sulfonyl]alkyne]-benzoate treatment group, the fibroblasts were cultured in media containing sodium 4-[(1E)-2-[[(4-chlorophenyl)methyl]sulfonyl]alkyne]-benzoate at the corresponding concentrations. After 24 h of culture, total RNA was extracted from the fibroblasts and subjected to reverse transcription to obtain complementary deoxyribonucleic acid (cDNA), which was then subjected to fluorescent quantitative PCR. After the end of reaction, an amplification curve and a melting curve of the fluorescent quantitative PCR were confirmed, with glyceraldehyde-3-phosphate dehydrogenase (GAPDH) as an internal reference gene. The results were analyzed using the internationally accepted 2^−ΔΔCt method.
Total RNA of fibroblasts was extracted using standard laboratory RNA extraction method and stored at −80° C. for later use. The extracted total RNA of fibroblasts was used as a template to synthesize cDNA by using the standard laboratory method, and the synthesized cDNA was stored at −20° C. for later use.
Fluorescent quantitative PCR system: 10 μL of qPCR SYBR Green Master Mix, 2 μL of 2 μM upstream primer, 2 μL of 2 μM downstream primer, and 1000 ng of cDNA template, a total volume of 20 μL by supplementing with diethyl pyrocarbonate (DEPC)-treated water.
Reaction conditions: pre-denaturation at 95° C. for 5 min, followed by 40 cycles of 10 sec at 95° C., 20 sec at 52.9° C., and 20 sec at 72° C. After the end of reaction, the melting curve was analyzed.
Experimental method: the COL1A2 level was detected using fluorescent quantitative PCR method. The experiment was divided into two major groups: a blank control group and a sodium 4-[(1E)-2-[[(4-chlorophenyl)methyl]sulfonyl]alkyne]-benzoate treatment group. In the blank control group, the fibroblasts were cultured in a normal medium; and in the sodium 4-[(1E)-2-[[(4-chlorophenyl)methyl]sulfonyl]alkyne]-benzoate treatment group, the fibroblasts were cultured in a medium containing 0.5 μM of sodium 4-[(1E)-2-[[(4-chlorophenyl)methyl]sulfonyl]alkyne]-benzoate, with incubation times of 24 h, 48 h, and 72 h. The specific process was as follows. The third-generation of fibroblasts was uniformly inoculated into a six-well plate. In the blank control group, the fibroblasts were cultured in a normal medium, and in the sodium 4-[(1E)-2-[[(4-chlorophenyl)methyl]sulfonyl]alkyne]-benzoate treatment group, the fibroblasts were cultured in a medium containing 0.5 μM of sodium 4-[(1E)-2-[[(4-chlorophenyl)methyl]sulfonyl]alkyne]-benzoate (i.e., normal medium containing 0.5μ M of sodium 4-[(1E)-2-[[(4-chlorophenyl)methyl]sulfonyl]alkyne]-benzoate). […]

[2] = tested on: collagen fiber content in skin; assay: Collagen fiber content in treated back skin of mice (Masson staining); format: in vivo, C57BL/6 mice
Protocol: (§2) Sodium 4-[(1E)-2-[[(4-chlorophenyl)methyl]sulfonyl]alkyne]-benzoate was dissolved in water to prepare an aqueous solution of sodium 4-[(1E)-2-[[(4-chlorophenyl)methyl]sulfonyl]alkyne]-benzoate (i.e., an anti-aging preparation for skin). Six healthy C57BL/6 mice aged 6-8 weeks with similar body sizes were selected, and the hair on the backs of the mice was removed gently and harmlessly to expose a similar area of skin on the back of each mouse. The six mice were divided into two groups equally. The same volume of pure water and aqueous solutions containing 0.5 of sodium 4-[(1E)-2-[[(4-chlorophenyl)methyl]sulfonyl]alkyne]-benzoate were applied, respectively, to the hair-removed skin on the backs of the mice once a day for 30 consecutive days.
Experimental method: after continuously applying an aqueous solution containing 0.5 μM of sodium 4-[(1E)-2-[[(4-chlorophenyl)methyl]sulfonyl]alkyne]-benzoate or pure water as a blank control to the backs of mice for 30 days, the mice were euthanized for cutting the skin from the treated areas, and the Masson staining method was used for detecting the collagen fiber content in the skin. […]

dermal thickness in skin = assay: Dermal thickness in treated back skin of mice (HE staining); format: in vivo, C57BL/6 mice
Protocol: as §2
Experimental method: after continuously applying an aqueous solution containing 0.5 μM of sodium 4-[(1E)-2-[[(4-chlorophenyl)methyl]sulfonyl]alkyne]-benzoate or pure water as a blank control to the backs of mice for 30 days, the mice were euthanized for cutting the skin from the treated areas, and hematoxylin-eosin (HE) staining method was used for detecting the dermal thickness in the skin. Specifically, the tissues were fixed, dehydrated with a sucrose solution, embedded in OCT, sliced, stained with hematoxylin, counterstained blue with tap water, stained with eosin, dehydrated and cleared, and then mounted.

fibroblasts = assay: Cell viability of fibroblasts after administration (status photographed under a microscope); format: cell-based, C57BL/6 mice; conditions: 0.5 μM, 24 h and 48 h
Protocol: as §1
Experimental method: the third-generation of fibroblasts was uniformly inoculated into a six-well plate. In the blank control group, the fibroblasts were cultured in a normal medium, and in the sodium 4-[(1E)-2-[[(4-chlorophenyl)methyl]sulfonyl]alkyne]-benzoate treatment group, the fibroblasts were cultured in a medium containing 0.5 μM of sodium 4-[(1E)-2-[[(4-chlorophenyl)methyl]sulfonyl]alkyne]-benzoate (i.e., normal medium containing 0.5 μM of sodium 4-[(1E)-2-[[(4-chlorophenyl)methyl]sulfonyl]alkyne]-benzoate). After culturing for 24 h and 48 h, respectively, the status of fibroblasts was photographed under a microscope.

COL1A2 [3] = assay: COL1A2 protein level in treated back skin of mice (Westernblot); format: in vivo, C57BL/6 mice; conditions: aqueous solution 0.5 μM applied to hair-removed back skin once a day for 30 days, P=0.0378
Protocol: as §2, with “The same volume of pure water and aqueous solutions containing 0.5 of sodium 4-[(1E)-2-[[(4-chlorophenyl)methyl]sulfonyl]alkyne]-benzoate were applied, respectively, to the hair-removed skin on the backs of the mice once a day for 30 consecutive days.” left out
(§3) Experimental method: after continuously applying the same volume of aqueous solutions containing 0.5 μM of sodium 4-[(1E)-2-[[(4-chlorophenyl)methyl]sulfonyl]alkyne]-benzoate or pure water as a blank control to the backs of mice for 30 days, the mice were euthanized for cutting the skin from the treated areas. The Westernblot method was employed to detect the protein level of COL1A2, and the fluorescent quantitative PCR method was employed to detect the mRNA level of COL1A2.
The specific process for the Westernblot experiment was as follows. […] After fluorescent secondary antibodies were incubated, the samples were visualized using an infrared fluorescence scanning imaging system. […]

COL1A2 [4] = assay: COL1A2 mRNA level in treated back skin of mice (fluorescent quantitative PCR); format: in vivo, C57BL/6 mice; conditions: aqueous solution 0.5 μM applied to hair-removed back skin once a day for 30 days, P=0.0178
Protocol: as §2, with “The same volume of pure water and aqueous solutions containing 0.5 of sodium 4-[(1E)-2-[[(4-chlorophenyl)methyl]sulfonyl]alkyne]-benzoate were applied, respectively, to the hair-removed skin on the backs of the mice once a day for 30 consecutive days.” left out
as §3
Fluorescence quantitative PCR experiment was performed specifically as follows. Total RNA was extracted from skin tissues, and subjected to reverse transcription to obtain cDNA, which was then subjected to fluorescence quantitative PCR. After the end of reaction, an amplification curve and a melting curve of the fluorescent quantitative PCR were confirmed, with GAPDH as an internal reference gene. […]

MMP-13 = MMP-13 mRNA level in treated back skin of mice (fluorescent quantitative PCR); format: in vivo, C57BL/6 mice; conditions: aqueous solution 0.5 M (so in the source) applied to hair-removed back skin once a day for 30 days, P=0.0171
Protocol: as §2, with “The same volume of pure water and aqueous solutions containing 0.5 of sodium 4-[(1E)-2-[[(4-chlorophenyl)methyl]sulfonyl]alkyne]-benzoate were applied, respectively, to the hair-removed skin on the backs of the mice once a day for 30 consecutive days.” left out
Experimental method: after continuously applying an aqueous solution containing 0.5 M of sodium 4-[(1E)-2-[[(4-chlorophenyl)methyl]sulfonyl]alkyne]-benzoate or pure water as a blank control to the backs of mice for 30 days, the mice were euthanized for cutting the skin from the treated areas, and the fluorescent quantitative PCR method was used for detecting the mRNA level of MMP-13 in skin tissue. Specifically, total RNA was extracted from skin tissues, and subjected to reverse transcription to obtain cDNA, which was then subjected to fluorescence quantitative PCR. After the end of reaction, an amplification curve and a melting curve of the fluorescent quantitative PCR were confirmed, with GAPDH as an internal reference gene. The results were analyzed using the internationally accepted 2^−ΔΔCt method. […]

[5] = same effect verification as Examples 1 and 2

| SMILES | increasing the expression of type I collagen (COL1A2) in cells, compared with the sodium salt (COL1A2 [1]; [5]) | increasing the collagen fiber content in the skin, compared with the sodium salt [2, 5] | increasing the dermal thickness in the skin, compared with the sodium salt (dermal thickness in skin; [5]) | expression of COL1A2 in the fibroblasts relative to blank control group (COL1A2 [1]; 0.5 μM, 24 h, P=0.0003) | expression of COL1A2 in fibroblasts with extension of incubation time (COL1A2 [1]; 0.5 μM, incubation time from 24 h to 72 h) | expression of COL1A2 in fibroblasts compared to the blank control group (COL1A2 [1]; 0.5 μM, incubation time of 72 h) | expression of COL1A2 in the fibroblasts relative to blank control group (COL1A2 [1]; 1 μM, 24 h, P<0.0001) | expression of COL1A2 in the fibroblasts (COL1A2 [1]; any other concentrations (0.1 μM, 3 μM, 6 μM), 24 h) | viability / status of fibroblasts (fibroblasts) | protein level of COL1A2 in skin, increase compared to pure water blank control group (COL1A2 [3]) | mRNA level of COL1A2 in skin, increase compared to pure water blank control group (COL1A2 [4]) | collagen fiber content in the skin, increase compared to pure water blank control group ([2]; aqueous solution 0.5 μM applied to hair-removed back skin once a day for 30 days, P=0.0010) | dermal thickness in the skin, increase compared to pure water blank control group (dermal thickness in skin; aqueous solution 0.5 μM applied to hair-removed back skin once a day for 30 days, P=0.0004) | mRNA level of MMP-13 in skin, decrease compared to pure water blank control group (MMP-13) |
| --- | --- | --- | --- | --- | --- | --- | --- | --- | --- | --- | --- | --- | --- | --- |
| O=C(O)c1ccc(/C=C/S(=O)(=O)Cc2ccc(Cl)cc2)cc1 | equivalent effects | equivalent effects | equivalent effects |  |  |  |  |  |  |  |  |  |  |  |
| O=C([O-])c1ccc(/C=C/S(=O)(=O)Cc2ccc(Cl)cc2)cc1.[Na+] |  |  |  | 1.613 times | decreases | no difference | 1.173 times | cannot increase the expression of COL1A2 | no adverse effects on viability of fibroblasts | 4.024 times | 2.681 times | 3.3904 times | 2.9101 times | 0.5124 times |
